Laboratory results taken from patent publication US20240425891A1, “Host cells and methods for improved polyketide production using methylmalonyl-CoA-dependent polyketide synthase (PKS)” (THE REGENTS OF THE UNIVERSITY OF CALIFORNIA, priority 2023, published 2024).

Columns and labels:
C. glutamicum Cz034 = assay: Propionate tolerance of Cz034 in CGXII minimal medium (growth curve); type: cell-based, Corynebacterium glutamicum
Description: Propionate tolerance was first evaluated using Cz034 in CGXII minimal medium to evaluate the highest propionate concentration for ALE. The lag phase increased as the propionate concentration increased, and no growth was observed when the propionate concentration was over 8,000 mg/L (Extended Data FIG. S11a, b). Then, ALE was applied to improve propionate tolerance and germicidin production in Cz12 by repeatedly growing the strains in increasing concentrations of propionate until we reached 8,000 mg/L (Extended Data FIG. S12). After two months of evolution, 563 single colonies were picked up from plates. Most of them grew faster than the initial strain (Extended Data FIG. S13a, b, c, d). […] To clarify whether the increased germicidin production improved methylmalonyl-CoA utilization, germicidin titer was measured on evolved strains.
Colony PCR. Pick up colonies from plate and cultivate in BHI medium (30° C., 200 rpm) overnight (around 14-16 h). Prepare digestion solution (120 μL zymolase (E1005, ZYMO RESEARCH) and 2500 μL PBS pH=7.2) for 96 reactions. Take 3-5 μL overnight culture into 20 μL digestion solution, 30° C. for 1 h. Add 3-5 μL dimethyl sulfoxide (DMSO), then 98° C. for 10 min. Take 2 μL for 50 μL PCR reaction. Growth curve measurement. Various cells were pre-cultivated in BHI liquid medium (30° C., 200 rpm) overnight. […] Growth curve was measured by SpectraMaX M2e at 30° C.

hexokinase (HK2) = molecular target: T1, hexokinase (HK2) (Homo sapiens, UniProt P52789); settings: literature reference 36; cited from earlier work
T1 sequence (P52789 1-917): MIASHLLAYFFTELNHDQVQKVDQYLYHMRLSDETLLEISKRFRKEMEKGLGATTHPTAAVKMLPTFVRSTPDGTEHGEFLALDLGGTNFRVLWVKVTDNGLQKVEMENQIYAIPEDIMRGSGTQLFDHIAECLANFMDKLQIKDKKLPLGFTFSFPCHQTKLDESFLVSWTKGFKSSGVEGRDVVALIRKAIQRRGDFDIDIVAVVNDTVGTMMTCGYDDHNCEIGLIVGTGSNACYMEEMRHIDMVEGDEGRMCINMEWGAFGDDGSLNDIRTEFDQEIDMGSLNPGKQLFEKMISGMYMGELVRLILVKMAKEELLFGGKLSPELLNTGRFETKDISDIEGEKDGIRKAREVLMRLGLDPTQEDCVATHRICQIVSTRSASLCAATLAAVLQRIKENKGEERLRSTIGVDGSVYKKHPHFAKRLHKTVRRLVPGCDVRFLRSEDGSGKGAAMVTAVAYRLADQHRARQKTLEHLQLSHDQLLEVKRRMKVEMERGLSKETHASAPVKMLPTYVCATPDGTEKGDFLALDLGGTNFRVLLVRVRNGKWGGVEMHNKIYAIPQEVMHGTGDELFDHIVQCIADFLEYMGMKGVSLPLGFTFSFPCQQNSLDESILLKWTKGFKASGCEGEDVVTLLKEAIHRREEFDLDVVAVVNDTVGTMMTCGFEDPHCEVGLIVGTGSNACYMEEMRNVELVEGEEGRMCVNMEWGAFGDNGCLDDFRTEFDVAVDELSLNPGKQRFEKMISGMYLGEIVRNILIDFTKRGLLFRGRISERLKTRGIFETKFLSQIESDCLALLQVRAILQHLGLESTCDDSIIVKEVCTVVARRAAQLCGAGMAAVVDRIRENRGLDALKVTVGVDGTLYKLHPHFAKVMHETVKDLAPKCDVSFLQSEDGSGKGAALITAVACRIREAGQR

## CCC(=O)O [propionate]
C. glutamicum Cz034
  propionate concentration above which no growth was observed: over 8,000 mg/L

## germicidin
Hexokinase (HK2)
  IC50 on hexokinase (HK2): 0.78 mg/mL
